This is an account of results in patent US8969313B2, “Methods and compounds for preventing and treating a tumour” (Agency for Science, Technology and Research, priority 2007, dated 2015).

Data set [1] relates to SFRP1, DACT1, DACT2, DACT3. The data set can be described thus: RT-PCR analysis of SFRP1 and DACT1, 2 and 3 after 5-AzaC. It counts as cell-based, human. As to conditions: HCT116 cells, 5-AzaC 5 μM for 3 days. An excerpt: (§1) A: Hierarchical clustering of Wnt inhibitors (upper) and Wnt/β-catenin target genes (lower) in human colorectal tumors (T) and matched normal mucosa (N). White signals in the upper panel indicate above-mean expression; white signals in the lower panel indicate below-mean expression. B: RT-PCR analysis of SFRP1 and DACT1, 2 and 3 from random-selected 8 pairs of human colorectal tumor and matched mucosa. C: Methylation status of SFRP1 and DACT3 in 8 tumors determined by methylation specific PCR (MSP) assay. M1, M2, M3 and M4 represent the examined PCR regions covering the entire CpG island of DACT3 promoter. D: RT-PCR analysis of SFRP1 and DACT1, 2 and 3 in a panel of colorectal cancer cell lines compared to the normal tissue. E: Methylation status of SFRP1 and DACT1, 2 and 3 in colorectal cancer cell lines. F: Determination of methylation status of CpG sites by sequencing of bisulphite-modified DNA from normal and colorectal cancer cell lines. Arrows indicate the transcription start sites. Open cycles represent unmethylated CpGs; closed cycles denote methylated CpGs. G: MSP analysis of DACT1, 2 and 3 promoters in HCT116 cells untreated or treated with 5-AzaC and in HCT116-DNMT1/DNMT3b−/− (DKO) cells. H: RT-PCR analysis of SFRP1 and DACT1, 2 and 3 in HCT116 and DLD1 cells treated with 5-AzaC (5 μM) for 3 days and in DKO cells. […]

The subject of data set [2] is DACT1 and DACT2 promoters. In words: Methylation specific PCR (MSP) of DACT promoters after 5-AzaC. Format: cell-based, human. As to conditions: HCT116 cells.
Excerpt: as §1, with “CpGs.” for “CpGs. G: MSP analysis of DACT1, 2 and 3 promoters in HCT116 cells untreated or treated with 5-AzaC and in HCT116-DNMT1/DNMT3b−/− (DKO) cells. H: RT-PCR analysis of SFRP1 and DACT1, 2 and 3 in HCT116 and DLD1 cells treated with 5-AzaC (5 μM) for 3 days and in DKO cells.”
The CpG island DNA methylation status was determined by PCR analysis after bisulfited modification and followed by methylation-specific PCR (MSP) and bisulfite genomic sequencing (BGS) (Yoshikawa, H., et al., Nat Genet (2001) 28, 29-35). […]

For data set [3], the system named is DACT3, DVL2, β-catenin. The data set can be described thus: Immunoblot analysis of DACT3, DVL2 and β-catenin in SW480 and DLD1 cells. It counts as cell-based, human. As to conditions: DZNep 5 μM, TSA 100 nM. The procedure: FIG. 6. Combination of DZNep and TSA results in blockade of Wnt/β-catenin signaling and massive apoptosis in colorectal cancer cells. A: Immunoblot analysis of DACT3, DVL2, total β-catenin, and non-phosphorylated β-catenin (Active-β-catenin) in SW480 and DLD1 cells treated with DZNep (5 μM), TSA (100 nM) or both. B: Immunofluorescent images of DLD1 and SW480 cells treated with DZNep/TSA. β-catenin staining is red, nuclear staining is green (DRAQ5). C: Indicated colorectal cancer cell lines were treated as above; RNA was harvested and subjected to array analysis. Changes of expression of known Wnt/β-catenin target genes were shown using gene clustering program. […] D: Numeric values of data depicted in FIG. 6C (D+T=DZNep+TSA). E: DLD1 and HT29 cells were treated as in A, and cell death was determined by PI staining and FACS analysis. The data represent Mean±SD of three independent experiments. F: HT29 cells were treated as in A, and Caspase 3 activity was measured by FACS analysis. G: HT29 cells were treated as in A, followed by JC-1 staining and FACS analysis.
(§2) Human tissue samples were obtained from Singapore Tissue Network using protocols approved by institutional Review Board of National University of Singapore; informed consent was obtained from each individual who provided the tissues. The colorectal cancer cell lines and non-transformed cell lines used in this study were purchased from the American Type Culture Collection (Manassas, Va.). HCT116 cells with genetic disruption of DNMT1 (DNA methyltransferase 1) and DNMT3B (DNA methyltransferase 3B) (HCT116 DKO) were kindly provided by Dr. Bert Vogelstein (Johns Hopkins University, MD). For drug treatment, cells were seeded the day before the drug treatment. Cells were treated with 5 μM 3-Deazaneplanocin A (DZNep) (obtained from Dr. Victor E. Marquez at National Cancer Institute, USA) or 5 μM 5-aza-2′-deoxycytidine (5-AzaC; Sigma) for 72 hours and Trichostatin A (TSA; Cell Signaling) at 100-200 nM for 24 hours. For 5-AzaC treatment, the medium was replaced with freshly added 5-AzaC for every 24 h. For co-treatment of cells with DZNep and TSA, DZNep was added for 24 hours followed by TSA for additional 24 hours for gene expression analysis and 48 hours for FACS analysis.
Immunoblotting was performed as described previously (Tan et al., 2007, supra). The blots were probed with the following antibodies: anti-H3K27me3 (07-449), anti-H3K9me3 (07-442), anti-H3K9/K14 ac (06-599), anti-H3K4me3 (07-473) and anti-active β-catenin(05-665), were purchased from Upstate. Anti-H4K20me3 (ab9053) was from Abcam. Anti-β-catenin (6B3) and anti-H3 (3H1) were from Cell Signaling and anti-DVL2 (sc-8026) was from Santa Cruz. […]
Background: Immunoblotting shows a protein as a band on a membrane.

Data set [4] in a line: Initial maximum tolerated dose (MTD) study of DZNep.
A short description of data set [5]: in vivo. Conditions: BALB/c nude, mouse, ip.
For data set [6], the system named is histone modifications. The data set can be described thus: Immunoblotting of bulk histone modifications in HT29 and SW480 cells. Format: cell-based, human. As for the experimental part:
FIG. 5. Effects of combination of DZNep and TSA on DACT3 and histone modifications. A: DACT3 mRNA expression analysis using Illumina Beadarray in DLD1 cells treated with 5 μM DZNep, 5 μM 5-AzaC, 200 nM TSA or their combinations. The data shown represents Mean±SD of three independent experiments. B: Indicated colorectal cancer cell lines were treated with DZNep, TSA or both. RNA was harvested and subjected to array analysis (1: DCAT2, 2: DACT2, 3: DCAT3, 4: DKK4, 5: DKK3, 6: DKKL1, 7: DKK2, 8: DKK3, 9: DKK1, 10: SFRP4, 11: SFRP2, 12: SFRP5, 13: SFRP3, 14: SFRP1). Changes of expression of known Wnt/β-catenin antagonists are shown. C: Immunoblotting analysis of bulk histone modifications induced by DZNep, TSA or both in HT29 cells and SW480 cells. D: ChIP analysis of indicated the changes of histone marks at the DACT1 and DACT3 loci in HT29 cells untreated (white bars) or treated with DZNep and TSA (black bars). The values represent the normalized enrichments against the changes of a low background region before and after the drug treatment. The data represent Mean±SD of three independent experiments.
as §2, with “For 5-AzaC treatment, the medium was replaced with freshly added 5-AzaC for every 24 h. For co-treatment of cells with DZNep and TSA, DZNep was added for 24 hours followed by TSA for additional 24 hours for gene expression analysis and 48 hours for FACS analysis.” left out

For data set [7], the system named is polycomb-repressive complex 2. As to conditions: Tan et al., 2007; cited from earlier work.
The format of data set [8] is in vivo. The procedure: FIG. 16. […]. The body weight was maintained at >80% in all groups. […].
For the HCT-116 study, nude mice that had received HCT-116 xenografts at day −7 were assigned into 4 groups of 7 animals each, and drug treatment was initiated on day 0 (see FIG. 1 for protocol outline): Group 1—vehicle control for both used compounds (Saline i.p. 3×/week in the morning, MC/Tween p.o. q.d. in the afternoon); Group 2—SAHA (200 mg/kg q.d. p.o. in the afternoon, plus the DZNep vehicle Saline 3/week i.p. in the morning); […]. The study was terminated on Day +14.
The study was conducted as using the protocol described in FIG. 15. The combination study was started using four groups of BALB/c nude mice bearing HCT-116 tumors (n=7 mice/group, initial mean tumor volume 6 days after inoculation: 91-107 mm^3). […]

Each structure is given as a SMILES string.

On to `Nc1ncn([C@H]2C[C@H](O)[C@@H](CO)O2)c(=O)n1` [5-AzaC, 5-aza-2′-deoxycytidine], for which the “expression of SFRP1, DACT1, DACT2 and DACT3” value in data set [1] was “increased expression of SFRP1, DACT1 and DACT2, but not DACT3”. In data set [2], the “methylation at the DACT1 and DACT2 promoters” value is listed as “decreased methylation”.
With `Nc1nccc2c1ncn2C1C=C(CO)C(O)C1O` (stereo not drawn) [DZNep, 5-(4-amino-1H-imidazo[4,5-c]pyridin-1-yl)-3-(hydroxymethyl)-3-cyclopentene-1,2-diol], in data set [3], the DACT3 protein levels entry is reported as “did not cause such changes” and the DVL2 levels entry was “did not cause such changes”. Also, the highest weight loss in data set [4] (10 mg/kg group, day 2) turned out to be 2.2%. For the same molecule, the deaths entry in data set [4] (15 mg/kg group, day 3, in the absence of significant weight loss) is given as “Two of three mice died”. The MTD at 5 day in data set [5] was 10 mg/kg. For the same molecule, in data set [6], the “H3K4me3 (bulk histone, Western blot)” value is given as “slight decrease”; the “H3K9me3 (bulk histone, Western blot)” value is on record as “little effect”; the “H3K27me3 and H4K20me3 (bulk histone, Western blot)” value is “strong reduction”. In data set [7], the “effect on polycomb-repressive complex 2 and histone methylation” value is “depletes components of the polycomb-repressive complex 2 and inhibits histone methylation”.
With `O=C(CCCCCCC(=O)Nc1ccccc1)NO` [SAHA, N′-hydroxy-N-phenyl-octanediamide], the “treatment-related death (TRD)” value in data set [8] (day 10, body weight 82%, n=7/group) was determined as 1. Also, the body weight in data set [8] (day 14, DZNep 5 mg/kg i.p. 3×/week, SAHA 200 mg/kg p.o. q.d., HCT-116 tumour-bearing mice) came out at 96.8%.
Regarding `CC(/C=C/C(=O)NO)=C\[C@@H](C)C(=O)c1ccc(N(C)C)cc1` [TSA, 7-[R-(E,E)]-[4-(dimethylamino)phenyl]-N-hydroxy-4,6-dimethyl-7-oxo-2,4-heptadienamide, reference compound], in data set [3], the DACT3 protein levels result is given as “did not cause such changes” and the DVL2 levels entry is reported as “did not cause such changes”.
